# In patent US7820706B2, “Multiple dose aromatase inhibitor for treating infertility” (Ares Trading S.A., priority 2001, dated 2010):
# Structures can show the parent of a compound that is named as a salt. Where two headings read alike, the source gives them in different places.
# Columns and labels:
# [1] = oral, healthy postmenopausal women; cited from earlier work
# rats = settings: rat, in vivo; cited from earlier work
# [2] = test system: patients who failed to ovulate or ovulated with endometrial thickness <5 mm in response to CC
# Protocol: HCG 10,000 IU was given to trigger ovulation. CC was given in a dose of 50-100 mg on days 3-7 or 5-9.
# [3] = test system: ovulatory women with unexplained infertility and anovulatory women with PCOS; settings: cited from earlier work
# [4] = test system: patients who failed to ovulate or ovulated with endometrial thickness <5 mm in response to CC; test: Example 1: letrozole for ovulation induction after CC failure; format: in vivo, human
# Description: HCG 10,000 IU was given to all except one patient to trigger ovulation. Ten patients completed 12 cycles (one patient completed three cycles).
# [5] = in vivo; cited from earlier work
# mice = settings: mouse, in vivo; cited from earlier work
# [6] = test system: women with PCOS; ovulatory women; settings: cited from earlier work
# aromatase [7] = biological target: T1, aromatase (Rattus norvegicus, UniProt P22443); settings: given orally; cited from earlier work
# T1 sequence (P22443 1-508): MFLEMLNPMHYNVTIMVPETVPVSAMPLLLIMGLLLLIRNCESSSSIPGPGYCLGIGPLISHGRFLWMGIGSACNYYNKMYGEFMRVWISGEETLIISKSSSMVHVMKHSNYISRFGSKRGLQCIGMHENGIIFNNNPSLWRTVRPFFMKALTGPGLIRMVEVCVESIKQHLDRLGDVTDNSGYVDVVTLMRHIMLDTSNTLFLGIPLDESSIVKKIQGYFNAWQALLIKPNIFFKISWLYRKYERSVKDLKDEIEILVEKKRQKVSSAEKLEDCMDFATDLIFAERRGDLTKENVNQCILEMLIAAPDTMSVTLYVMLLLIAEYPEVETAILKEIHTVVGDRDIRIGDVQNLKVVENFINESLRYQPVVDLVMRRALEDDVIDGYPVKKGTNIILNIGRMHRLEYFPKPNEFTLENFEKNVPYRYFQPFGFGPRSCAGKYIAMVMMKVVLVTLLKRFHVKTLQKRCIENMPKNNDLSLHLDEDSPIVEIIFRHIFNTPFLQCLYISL
# mature female rats = settings: cited from earlier work
# [8] = test system: patients with PCOS with inadequate response to CC; settings: cited from earlier work
# [9] = test system: postmenopausal breast cancer patients; settings: lethargy, rashes, nausea and fever; cited from earlier work
# aromatase [10] = biological target: T2, aromatase (Homo sapiens, UniProt P11511); settings: cited from earlier work
# T2 sequence (P11511 1-503): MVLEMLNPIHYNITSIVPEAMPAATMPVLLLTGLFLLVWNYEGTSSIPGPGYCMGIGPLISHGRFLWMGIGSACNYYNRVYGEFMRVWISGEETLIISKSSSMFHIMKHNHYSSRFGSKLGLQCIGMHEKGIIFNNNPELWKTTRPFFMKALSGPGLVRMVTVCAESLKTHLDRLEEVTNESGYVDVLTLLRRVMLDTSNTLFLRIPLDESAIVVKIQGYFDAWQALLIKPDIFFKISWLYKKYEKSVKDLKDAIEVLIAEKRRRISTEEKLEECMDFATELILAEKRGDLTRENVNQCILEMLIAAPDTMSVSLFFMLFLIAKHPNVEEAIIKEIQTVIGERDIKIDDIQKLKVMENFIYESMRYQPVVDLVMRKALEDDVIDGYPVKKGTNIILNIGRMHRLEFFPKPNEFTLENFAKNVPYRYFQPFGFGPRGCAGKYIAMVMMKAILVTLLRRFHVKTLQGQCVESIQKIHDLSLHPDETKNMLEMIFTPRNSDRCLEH
# anovulatory women = settings: cited from earlier work
# [11] = test system: endometrium of normal women; settings: morphometric analysis; cited from earlier work
compound,measurement,setting,value
N#Cc1ccc(C(c2ccc(C#N)cc2)n2cncn2)cc1 [letrozole],half-life,[1],approximately 45 hours
same,lethal dose,rats,approximately 2000 mg/kg
same,"pregnancy, patients",[2]; 5 out of 15 patients,33%
same,"ovulation, cycles",[2]; 13 of 17 letrozole cycles,77%
same,Endometrial Thickness,[2]; mean,0.8 Cm.
same,Estradiol per mature follicle,[2]; mean,392 pmol/L
same,Number of Days from last letrozole tablet to HCG day,[2]; mean,6.7
same,Endometrial Thickness,[2]; median,0.8 Cm.
same,Estradiol per mature follicle,[2]; median,289 pmol/L
same,Number of Days from last letrozole tablet to HCG day,[2]; median,7
same,Endometrial Thickness,[2]; range,0.6-1.1 Cm.
same,Estradiol per mature follicle,[2]; range,107 to 837 pmol/L
same,Number of Days from last letrozole tablet to HCG day,[2]; range,2-9
same,FSH dose required for adequate ovarian super ovulation,[3]; letrozole in conjunction with FSH,significantly lower FSH dose
same,ovarian response to FSH stimulation,[3]; low responders during ovarian stimulation,improvement in ovarian response to FSH stimulation
same,"pregnancy, patients",[4]; 4 out of 10 patients,40%
same,"ovulation, cycles","[4]; 9 of 12 cycles, 2.5 to 5 mg/day",75%
same,Endometrial Thickness,[4]; mean,0.8 Cm.
same,Estradiol on day of HCG admin.,[4]; mean,1036 pmol
same,Endometrial Thickness,[4]; median,0.8 Cm.
same,Estradiol on day of HCG admin.,[4]; median,988 pmol
same,Endometrial Thickness,[4]; range,0.6-0.9 Cm.
same,Follicles >1.5 Cm On day of HCG admin.,[4]; range,1-3
same,doses well tolerated,[5],up to 30 mg
same,lethal dose,mice,approximately 2000 mg/kg
same,"pregnancy, patients","[6]; PCOS group, 3 patients",25%
same,"ovulation, cycles","[6]; PCOS group, 9 of 12 cycles",75%
same,"pregnancy, patients","[6]; ovulatory group, one patient",10%
same,mean endometrial thickness,[6]; ovulatory group,0.8 cm
same,mean number of mature follicles,[6]; ovulatory group,2.3
same,ED50 in vivo,aromatase [7],1 to 3 µg/kg
same,FSH and LH,mature female rats,increased FSH and LH
same,increase in ovarian weight,mature female rats,~30%
same,"ovulation, letrozole treated cycles","[8]; 7 of the 10 cycles, PCOS",70%
same,mean number of mature follicles,"[8]; 7 ovulatory cycles, mean",2.6
same,"number of mature follicles, range","[8]; 7 ovulatory cycles, range",1 to 4 follicles
same,mean estradiol per follicle,[8]; mean,378 pmol/L
same,chemical pregnancy,[8]; of 10 PCOS patients,one
same,clinical pregnancy,[8]; of 10 PCOS patients,2 patients
CCC1(c2ccc(N)cc2)CCC(=O)NC1=O (centres unmarked) [aminoglutethimide],patients stopping treatment because of side effects,[9],8-15%
CC(C)(C#N)c1cc(Cn2cncn2)cc(C(C)(C)C#N)c1 [anastrozole],in vivo inhibition of aromatase,aromatase [10],97%
"CCN(CC)CCOc1ccc(C(=C(Cl)c2ccccc2)c2ccccc2)cc1 [CC, clomiphene citrate]",anovulatory women resistant to CC who fail to ovulate,anovulatory women; doses up to 150 mg daily,20% to 25%
same,women who do not ovulate with CC,anovulatory women; in vivo,20 to 25%
same,Day of hCG administration,[2]; mean,12.6
same,Endometrial Thickness,[2]; mean,0.5 Cm.
same,Estradiol on day of hCG administration,[2]; mean,2145 pmol/L
same,Estradiol per mature follicle,[2]; mean,1278 pmol/L
same,Follicles >1.5 Cm on day of hCG administration,[2]; mean,1.9
same,LH on day of hCG administration,[2]; mean,16 IU/L
same,Number of Days from last letrozole tablet to HCG day,[2]; mean,4.4
same,Day of hCG administration,[2]; median,12
same,Endometrial Thickness,[2]; median,0.4 Cm.
same,Estradiol on day of hCG administration,[2]; median,1668 pmol/L
same,Estradiol per mature follicle,[2]; median,1486 pmol/L
same,Follicles >1.5 Cm on day of hCG administration,[2]; median,2
same,LH on day of hCG administration,[2]; median,8 IU/L
same,Number of Days from last letrozole tablet to HCG day,[2]; median,4
same,Day of hCG administration,[2]; range,11-16
same,Endometrial Thickness,[2]; range,0.4-0.8 Cm.
same,Estradiol on day of hCG administration,[2]; range,362 to 5210 pmol/L
same,Estradiol per mature follicle,[2]; range,177 to 2404 pmol/L
same,Follicles >1.5 Cm on day of hCG administration,[2]; range,1-5
same,LH on day of hCG administration,[2]; range,3-66 IU/L
same,Number of Days from last letrozole tablet to HCG day,[2]; range,2-7
same,"effect on the endometrium (glandular density, vacuolated cells)",[11],deleterious effect on the endometrium
